Laboratory results reported in patent US10212956B2, “Compositions and methods of treating edible matter and substrates therefor” (PIMI AGRO CLEANTECH LTD., priority 2010, dated 2019).

Columns and labels:
[1] = system: Aspergillus niger (ATCC 16404); assay: BS EN 1650:1998 quantitative suspension test, fungicidal activity; format: cell-based; conditions: 300 ppm; same test conditions (1 minute, 20° C., dirty conditions)
Experimental: (§1) This is a quantitative suspension test to evaluate the activity of chemical disinfectants and antiseptics used in food, industrial, domestic and institutional areas against fungi, yeasts and molds. The same composition tested in Example 22 was tested in this case as well.
(§2) As is known in the art, EN 1650 specifies a test method and the minimum requirements for anti-fungal, anti-yeast and anti-mold activity of chemical disinfectant and antiseptic products that form a homogeneous, physically stable preparation in hard water and that are used in food, industrial, domestic and institutional areas, excluding areas and situations where disinfection is medically indicated and excluding products used on living tissues except those for hand hygiene in the above-considered areas. […]
(§3) A test suspension of yeast cells and/or mold spores in a solution of interfering substance (bovine albumin, 3 g/l) was added to a prepared sample of the product under test diluted in hard water. […] (If a suitable neutralizer could be found, membrane filtration was used.) The number of surviving fungi, yeast cells or mold spores in each sample was determined and the reduction in viable counts was calculated. […]

[2] = system: Penecillium w.t. (wild type); assay: as above; format: cell-based; conditions: 300 ppm; same test conditions (1 minute, 20° C., dirty conditions)
Experimental: as §1, §2, §3

mandarin oranges = assay: Citrus decay during storage at 2° C.; format: in vivo; conditions: Mandarin Orange
Experimental: Approximately 1000 mandarin oranges were treated shortly after harvest with compositions comprising performic acid, water, or an Imazalil composition, and then stored at 2° C. After 22 days, the number of rotten fruits, and the percent decay were assessed. A second trial was conducted with ten tons of mandarin oranges treated with a performic acid composition or Imazalil and stored and then stored at 2° C. The study was repeated with Red Grapefruit. The compositions comprising performic acid and the manner of applying the compositions varied throughout the course of the study within the parameters summarized in Table 6.
The compositions were applied to the citrus at room temperature with a fine spray of the performic acid containing composition and then treated either a) with a drain wash of water (either cold or heated to 55° C.) with a 1:9 dilution in tap water of the composition without formic acid, orb) with a drain wash of water (either cold or heated to 55° C.), followed by a fine spray at room temperature with a formulation identical to the performic acid formulation but without formic acid. Thus, the methods of applying in this study were: • a. Application of the performic acid containing composition at room temperature with fine spray, then treatment with a drain wash of cold water, and then a fine spray at room temperature with a formula without formic acid (i.e. without the performic acid source) • b. Application of the performic acid containing composition at room temperature with fine spray, then treatment with a drain wash of heated water (to about 55° C.), and then a fine spray at room temperature with a formula without formic acid • c. Application of the performic acid containing composition at room temperature with fine spray and then treatment with a drain wash of cold water that contained the formula at a diluted state at a ratio of 1:9 but without formic acid • d. Application of the performic acid containing composition at room temperature with fine spray and then treatment with a drain wash of heated water (to about 55° C.) that contained the formula at a diluted state at a ratio of 1:9 but without formic acid
All treatments were conducted at a total rate of 5-20 liter of formula per ton of different Citrus varieties.

Structure (SMILES) | compliance with EN 1650 [1] | compliance with EN 1650 [2] | % Decay (mandarin oranges; 22 days after treatment) | No. Rotten Fruits (mandarin oranges; 22 days after treatment) | % Decay (mandarin oranges; 46 days after treatment) | No. Rotten Fruits (mandarin oranges; 46 days after treatment)
CC(=O)OO [peracetic acid] | did not meet the standard | did not meet the standard | – | – | – | –
C=CCOC(Cn1ccnc1)c1ccc(Cl)cc1Cl (stereo not drawn) [Imazalil] | – | – | 6.8% | 59 | 1.75% | 125
